Laboratory results taken from patent US10322118B2, “Compounds and methods for inhibiting Cif virulence factor” (priority 2012, dated 2019).
Values joined by “and” are separate entries in the source; they are usually repeats but may differ in a detail not shown here. Identical values can stand only once. Counter-ions that a name gives are not always drawn. Like-named read-outs stand apart in the source and are kept apart here.

Tests used:
Cif [1] = target: T1, Cif (Pseudomonas aeruginosa (strain UCBPP-PA14), UniProt A0A0H2ZD27); experiment: Fluorescent-based Cif inhibitory assay (CMNGC)
T1 sequence (A0A0H2ZD27 25-319 limits assumed): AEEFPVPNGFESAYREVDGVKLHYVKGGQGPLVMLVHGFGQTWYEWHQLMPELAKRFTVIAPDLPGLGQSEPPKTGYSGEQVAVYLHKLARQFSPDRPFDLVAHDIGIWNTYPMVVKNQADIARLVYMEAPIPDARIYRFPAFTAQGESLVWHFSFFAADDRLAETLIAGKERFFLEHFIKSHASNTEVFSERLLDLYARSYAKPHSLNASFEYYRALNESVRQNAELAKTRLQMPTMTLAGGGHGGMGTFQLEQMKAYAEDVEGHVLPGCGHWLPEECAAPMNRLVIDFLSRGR
From the text: Cyano (6-methoxynaphthalen-2-yl) methyl glycidyl carbonate (CMNGC) was used as a fluorescent reporter substrate.
Reported IC50 values are the average of triplicates with at least two data points above and at least two below the IC50.

Cif [2] = target: T1, Cif; experiment: Radioactivity epoxide hydrolase assay with tritium-labeled cis-stilbene oxide (CSO); assay type: biochemical; parameters: concentration or dose not given beside the values; details: for Inhibition (%): radioactivity assay, CSO substrate, initial screen and retest (Table 8)
Cif [3] = target: T1, Cif; experiment: Primary high throughput screen with fluorogenic substrate CMNGC; assay type: biochemical; details: for % Inhibition / inhibition at 10 µM: primary screen, test compounds at 10 μM, 1 μM Cif, 25 μM CMNGC, 60 minutes;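 for all read-outs here: fluorescence of 200 µL reactions in 96-well plates read on a plate reader, inhibitor at tenfold molar excess over Cif enzyme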
Method: All high throughput screening assays were performed using 96-well plates, a 200 μL reaction volume, and a fluorescent plate reader. […] The fluorescent signal was measured after allowing the enzyme reaction to proceed for 60 minutes.
A library of 1600 FDA-approved compounds was screened for Cif inhibitory activity.
The screen was performed with only a 10-fold stoichiometric excess of inhibitor over Cif enzyme.

Cif [4] = target: T1, Cif; experiment: Secondary screen (sextuplicate) with fluorogenic substrate CMNGC; assay type: biochemical; details: for % Inhibition, Mean ± SD / % Inhibition, plate 1 / % Inhibition, plate 2 / % Inhibition, plate 3 / % Inhibition, plate 4 / % Inhibition, plate 5 / % Inhibition, plate 6: secondary screen, 10 μM; for % Inhibition, Mean ± SD: mean of six plates; for % Inhibition, plate 1: plate number 1; for % Inhibition, plate 2: plate number 2; for % Inhibition, plate 3: plate number 3; for % Inhibition, plate 4: plate number 4; for % Inhibition, plate 5: plate number 5; for % Inhibition, plate 6: plate number 6;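 for all read-outs here: purified enzyme assay in 96-well plates, 200 µL volume, fluorescence recorded each minute across a 60 min reaction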
Method: All high throughput screening assays were performed using 96-well plates, a 200 μL reaction volume, and a fluorescent plate reader. […] The fluorescent signal was measured after allowing the enzyme reaction to proceed for 60 minutes. The secondary screen was performed using the same conditions as the primary screen, except that fluorescent readings were taken every minute for the 60-minute reaction.
Subsequently, the filtered primary hits were retested to validate the observed inhibitory effect.

[5] = Table 17 (R6-R9 series), CMNGC, average of triplicates
[6] = Table 18 (biphenyl R series), CMNGC, average of triplicates
[7] = read-out: % Inhibition, Mean ± SD
[8] = read-out: % Inhibition, plate 1
[9] = read-out: % Inhibition, plate 2
[10] = read-out: % Inhibition, plate 3
[11] = read-out: % Inhibition, plate 4
[12] = read-out: % Inhibition, plate 5
[13] = read-out: % Inhibition, plate 6

SMILES	inhibition at 10 µM (Cif [3]) [%]	inhibition at 10 µM (Cif [4]; [7]) [%]	inhibition at 10 µM (Cif [4]; [8]) [%]	inhibition at 10 µM (Cif [4]; [9]) [%]	inhibition at 10 µM (Cif [4]; [10]) [%]	inhibition at 10 µM (Cif [4]; [11]) [%]	inhibition at 10 µM (Cif [4]; [12]) [%]	inhibition at 10 µM (Cif [4]; [13]) [%]	also measured
CCOC(=O)CC(=O)Nc1cc(Br)c(Oc2cccc(C(C)C)c2)c(Br)c1 [Compound 1g]	–	–	–	–	–	–	–	–	Cif inhibitory activity at 50 μM (Cif [1]): fail to show inhibitory activity; IC50 (Cif [1]; [5]): > 50 µM
CC(=O)N1CCC(NC(=O)NC2CCCCCC2)CC1 [Entry 14]	–	–	–	–	–	–	–	–	Inhibition (%) (Cif [2]): 6%
CCC(=O)Nc1cc(Cl)c(Oc2ccc(O)c(-c3ccc(NC(N)=O)cc3)c2)c(Cl)c1 [Compound 8i]	–	–	–	–	–	–	–	–	IC50 (Cif [1]; [6]): 0.29 µM
CCC(=O)Nc1cc(Cl)c(Oc2ccc(O)c(-c3ccc(C(C)=O)cc3)c2)c(Cl)c1 [Compound 8k]	–	–	–	–	–	–	–	–	IC50 (Cif [1]; [6]): 0.35 µM
CCOC(=O)CC(=O)Nc1cc(Cl)c(Oc2ccc(O)c(C(C)C)c2)c(Cl)c1 [Compound 1i]	–	–	–	–	–	–	–	–	IC50 (Cif [1]; [5]): 3.8 µM
CCOC(=O)CC(=O)Nc1cc(Cl)c(Oc2ccc(O)c(C(F)(F)F)c2)c(Cl)c1 [Compound 1n]	–	–	–	–	–	–	–	–	IC50 (Cif [1]; [5]): 3 µM
O=C(Nc1ccc(Cl)c(Cl)c1)Nc1ccc(Cl)c(Cl)c1 [Entry 18, N,N′-di-(3,4-dichlorophenyl) urea]	–	–	–	–	–	–	–	–	Inhibition (%) (Cif [2]): 25.5%; inhibition of Cif enzyme activity (Cif [2]; secondary screen of radioactivity assay, P=0.004): 25%; % I, Positive Control Inhibitor, Average (Cif [3]; 10 μM DCPU positive control, average of 20 plates): 20%; % I (percent of the total enzyme activity inhibited), Positive Control Inhibitor (Cif [3]; 10 μM DCPU positive control, per plate of primary screen, listed as Positive Control Inhibitor): 15.2% and 30.0%
CCC(=O)Nc1cc(Cl)c(Oc2ccc(O)c(-c3cccc(C#N)c3)c2)c(Cl)c1 [Compound 8f]	–	–	–	–	–	–	–	–	IC50 (Cif [1]; [6]): 0.58 µM
COC(=O)c1ccc(NC(=O)NC23CC4CC(CC(C4)C2)C3)cc1O [Entry 13]	–	–	–	–	–	–	–	–	Inhibition (%) (Cif [2]): 18%
CS(=O)(=O)N1CCC(NC(=O)Nc2ccc(OC(F)(F)F)cc2)CC1 [Entry 16]	–	–	–	–	–	–	–	–	Inhibition (%) (Cif [2]): 14%
CCOC(=O)CC(=O)Nc1cc(Cl)c(Oc2ccc(O)c(I)c2)c(Cl)c1 [Compound 1m]	–	–	–	–	–	–	–	–	IC50 (Cif [1]; [5]): 3.8 µM
CCC(=O)Nc1cc(Cl)c(Oc2ccc(O)c(-c3ccc(C(=O)O)cc3)c2)c(Cl)c1 [Compound 8b]	–	–	–	–	–	–	–	–	IC50 (Cif [1]; [6]): 10.5 µM
CC(O)CN1CCN(CC(=O)[O-])CCN(CC(=O)[O-])CCN(CC(=O)[O-])CC1.[Gd+3] (centres unmarked) [Gadoteridol]	–	–	–	–	–	–	–	–	% Inhibition (Cif [3]): 34%; % Inhibition, Mean ± SD (Cif [4]): 11 ± 5%; % Inhibition, plate 1 (Cif [4]): 7%; % Inhibition, plate 2 (Cif [4]): 3%; % Inhibition, plate 3 (Cif [4]): 10%; % Inhibition, plate 4 (Cif [4]): 13%; % Inhibition, plate 5 (Cif [4]): 16%; % Inhibition, plate 6 (Cif [4]): 15%
CCOC(=O)CC(=O)Nc1cc(Cl)c(Oc2ccc(O)cc2)c(Cl)c1 [Compound 1k]	–	–	–	–	–	–	–	–	Cif inhibitory activity at 50 μM (Cif [1]): showed no inhibition; IC50 (Cif [1]; [5]): > 50 µM
CCC(=O)Nc1cc(Cl)c(Oc2ccc(O)c(-c3ccc(C#N)cc3)c2)c(Cl)c1 [Compound 8e]	–	–	–	–	–	–	–	–	IC50 (Cif [1]; [6]): 11.9 µM
O=C(Nc1ccc(Cl)cc1)Nc1ccc(Cl)cc1 [Entry 17]	–	–	–	–	–	–	–	–	Inhibition (%) (Cif [2]): 7%
C[C@]12CC[C@@H]3c4ccc(O)cc4CC[C@H]3[C@@H]1CC[C@@H]2O [Estradiol]	39	4 ± 5	4	5	5	6	8	-6	–
Cc1c(Nc2ncccc2C(=O)O)cccc1C(F)(F)F [Flunixin meglumine]	32	14 ± 5	13	15	14	18	19	4	–
CCC(=O)Nc1cc(Cl)c(Oc2ccc(O)c(-c3ccc(C(=O)NC)cc3)c2)c(Cl)c1 [Compound 8g]	–	–	–	–	–	–	–	–	IC50 (Cif [1]; [6]): 1.7 µM
Cc1nccnc1N1CCCCC1 [Modaline sulfate]	34	12 ± 3	10	7	12	12	13	17	–
CCOC(=O)CC(=O)Nc1cc(Cl)c(Oc2ccc(O)cc2Br)c(Cl)c1 [Compound 1q]	–	–	–	–	–	–	–	–	IC50 (Cif [1]; [5]): 29.3 µM
CN(C)CCOc1ccc(/C(=C(/CCCl)c2ccccc2)c2ccccc2)cc1 [Toremiphene citrate]	31	10 ± 4	3	7	13	12	15	11	–

SMILES	inhibition at 10 µM (Cif [3]) [%]	inhibition at 10 µM (Cif [4]; [7]) [%]	inhibition at 10 µM (Cif [4]; [8]) [%]	inhibition at 10 µM (Cif [4]; [9]) [%]	inhibition at 10 µM (Cif [4]; [10]) [%]	inhibition at 10 µM (Cif [4]; [11]) [%]	inhibition at 10 µM (Cif [4]; [12]) [%]	inhibition at 10 µM (Cif [4]; [13]) [%]	also measured
CC1=NN(c2ccccc2)C(=O)C1 [Edaravone]	43	16 ± 7	21	13	13	26	19	6	–
CCOC(=O)CC(=O)Nc1cc(Br)c(Oc2ccc(OC)c(C(C)C)c2)c(Br)c1 [Compound 1h]	–	–	–	–	–	–	–	–	Cif inhibitory activity at 50 μM (Cif [1]): fail to show inhibitory activity; IC50 (Cif [1]; [5]): > 50 µM
C#Cc1cc(Oc2c(Cl)cc(NC(=O)CC(=O)OCC)cc2Cl)ccc1O [Compound 1p]	–	–	–	–	–	–	–	–	IC50 (Cif [1]; [5]): 2.9 µM
CC(=O)CC(c1ccccc1)c1c(O)c2ccccc2oc1=O (centres unmarked) [Warfarin]	32	15 ± 3	12	12	17	15	20	17	–
CC(=O)[C@@]12O[C@](C)(c3ccccc3)O[C@@H]1C[C@H]1[C@@H]3CCC4=CC(=O)CC[C@]4(C)[C@H]3CC[C@@]12C [Algestone acetophenide]	–	–	–	–	–	–	–	–	% Inhibition (Cif [3]): 38%; % Inhibition, Mean ± SD (Cif [4]): −3 ± 5%; % Inhibition, plate 1 (Cif [4]): −5%; % Inhibition, plate 2 (Cif [4]): −2%; % Inhibition, plate 3 (Cif [4]): 0%; % Inhibition, plate 4 (Cif [4]): −2%; % Inhibition, plate 5 (Cif [4]): 3%; % Inhibition, plate 6 (Cif [4]): −10%
Cc1cccc(Nc2ccccc2C(=O)O)c1C [Mefenamic acid]	48	16 ± 8	5	24	17	22	20	6	–
CCC(=O)Nc1cc(Cl)c(Oc2ccc(O)c(-c3ccc(S(N)(=O)=O)cc3)c2)c(Cl)c1 [Compound 8l]	–	–	–	–	–	–	–	–	IC50 (Cif [1]; [6]): 2 µM
Nc1nc2c(ncn2CCC(CO)CO)c(=O)[nH]1 [Penciclovir]	45	0	-11	1	2	3	7	-3	–
CCCCCCCCCCCCCCOS(=O)(=O)O [Sodium tetradecyl sulfate]	78	9 ± 4	9	4	12	12	13	5	–
NC(Cc1ccc(Oc2ccc(O)c(I)c2)c(I)c1)C(=O)O (centres unmarked) [Entry 4]	–	–	–	–	–	–	–	–	IC50 (Cif [1]): 80 ± 10 µM
O=C(Nc1ccc(OC(F)(F)F)cc1)NC1CCC(Oc2ccc(C(=O)O)cc2)CC1 (centres unmarked) [Entry 15]	–	–	–	–	–	–	–	–	Inhibition (%) (Cif [2]): 17%
CCOC(=O)CC(=O)Nc1cc(Cl)c(Oc2ccc(O)c(Br)c2)c(Cl)c1 [Compound 1l]	–	–	–	–	–	–	–	–	IC50 (Cif [1]; [5]): 4.9 µM
NC(Cc1cc(I)c(Oc2cc(I)c(O)c(I)c2)c(I)c1)C(=O)O (centres unmarked) [Entry 6]	–	–	–	–	–	–	–	–	IC50 (Cif [1]): > 100 µM
CCOC(=O)[C@H](CCc1ccccc1)N[C@@H](C)C(=O)N1CCC[C@H]1C(=O)O [Enalapril maleate]	31	4 ± 8	-6	13	1	9	10	-3	–
Nc1ccc(S(=O)(=O)Nc2ncccn2)cc1 [Sulfadiazine]	42	23 ± 4	23	24	24	26	28	15	–
NCC(O)c1ccc(O)cc1 (centres unmarked) [Octopamine hydrochloride]	42	11 ± 6	1	6	12	9	18	17	–
CCOC(=O)CC(=O)Nc1ccc(Oc2ccc(O)c(C(C)C)c2)c(Cl)c1 [Compound 1j]	–	–	–	–	–	–	–	–	IC50 (Cif [1]; [5]): 11.6 µM
CN(C)CCCN1c2ccccc2CCc2ccc(Cl)cc21 [Clomipramine hydrochloride]	51	5 ± 4	0	3	9	3	9	7	–
O=C(NC1CCC(Oc2ccc(C(=O)O)cc2)CC1)NC12CC3CC(CC(C3)C1)C2 (centres unmarked) [Entry 12]	–	–	–	–	–	–	–	–	Inhibition (%) (Cif [2]): 14%
CCCCCCCCCCCCCCCC[N+](C)(C)C.[Br-] [Cetrimonium bromide]	–	–	–	–	–	–	–	–	% Inhibition (Cif [3]): 44%; % Inhibition, Mean ± SD (Cif [4]): 2 ± 4%; % Inhibition, plate 1 (Cif [4]): 1%; % Inhibition, plate 2 (Cif [4]): −1%; % Inhibition, plate 3 (Cif [4]): −4%; % Inhibition, plate 4 (Cif [4]): 3%; % Inhibition, plate 5 (Cif [4]): 8%; % Inhibition, plate 6 (Cif [4]): 2%
CCC(=O)Nc1cc(Cl)c(Oc2ccc(O)c(-c3cccc(C(N)=O)c3)c2)c(Cl)c1 [Compound 8d]	–	–	–	–	–	–	–	–	IC50 (Cif [1]; [6]): 0.46 µM
